Assay results reported in patent US7838468B2, “High molecular weight polyamine salts as clay stabilizing agents” (Baker Hughes Incorporated, priority 2003, dated 2010).

Experiment: permeability of Bandera sandstone (clay stabilization)
Conditions: API standard brine and tap water, 150° F. (66° C.)
Protocol: FIG. 1 is a graph of the effect of TMAC and Tap Water on the permeability of Bandera Sandstone at 150° F. (66° C.);
FIG. 2 is a graph of the effect of A4819 and Tap Water on the permeability of Bandera Sandstone at 150° F. (66° C.); and
FIG. 3 is a graph of the effect of A4840 and Tap Water on the permeability of Bandera Sandstone at 150° F. (66° C.).
The products TMAC (tetramethylammonium chloride), A4819 and A4840 were tested on an API standard brine and tap water on Bandera sandstone for permeability.

Question: With `C[N+](C)(C)C.[Cl-]` [TMAC, tetramethylammonium chloride] as the compound, how does the “maintaining permeability (measure that the clay is stable)” value read?
Answer: performed well
